{
  "source": "patent US6858630B2",
  "about": "“Naphthimidazole derivatives and their use as thrombopoietin mimetics” (SmithKline Beecham Corporation, priority 1999, dated 2005)",
  "target": "T1, TPO receptor (Homo sapiens, UniProt P40238)",
  "T1 construct": "expressed in transfected cells; host or cells: murine BaF3 cells",
  "T1 sequence (P40238 26-635)": "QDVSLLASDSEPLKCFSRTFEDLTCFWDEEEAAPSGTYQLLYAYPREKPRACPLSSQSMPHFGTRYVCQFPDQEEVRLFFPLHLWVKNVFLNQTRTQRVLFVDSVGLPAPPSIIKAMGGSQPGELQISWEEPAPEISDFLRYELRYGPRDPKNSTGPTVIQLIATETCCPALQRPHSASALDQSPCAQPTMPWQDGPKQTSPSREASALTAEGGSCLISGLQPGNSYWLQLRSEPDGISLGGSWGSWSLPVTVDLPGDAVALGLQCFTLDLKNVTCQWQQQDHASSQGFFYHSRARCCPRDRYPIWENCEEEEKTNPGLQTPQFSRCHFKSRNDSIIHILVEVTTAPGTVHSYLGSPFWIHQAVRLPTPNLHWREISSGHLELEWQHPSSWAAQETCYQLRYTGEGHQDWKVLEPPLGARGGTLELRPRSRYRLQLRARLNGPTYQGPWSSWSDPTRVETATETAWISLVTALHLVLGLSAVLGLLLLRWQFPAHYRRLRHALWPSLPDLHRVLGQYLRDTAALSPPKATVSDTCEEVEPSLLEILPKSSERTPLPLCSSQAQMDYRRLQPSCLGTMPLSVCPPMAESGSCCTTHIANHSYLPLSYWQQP",
  "assay": "Luciferase assay (TPO-responsive BaF3 cell line)",
  "format": "cell-based, murine",
  "details": "at a concentration of 2 uM; control is the maximal response to TPO",
  "method": "Compounds of the present invention were tested for potency as mimetics of the TPO receptor in a Luciferase assay such as described in Lamb, et al., Nucleic Acids Research 23; 3283-3289 (1995) and Seidel, et al., Proc. Natl. Acad. Sci., USA 92: 3041-3045 (1995) by substituting a TPO-responsive BaF3 cell line (Vigon et al. Proc. Natl. Acad. Sci. USA 1992, 89, 5640-5644) for the HepG2 cells utilized therein. The murine BaF3 cells express TPO receptors and closely match the pattern of STAT (signal transducers and activators of transcription) activation observed in primary murine and human bone marrow cells.",
  "data": [
    {"smiles": "COc1c(-c2ccc(C)cc2)cccc1-c1nc2c(ccc3cc(S(=O)(=O)O)cc(O)c32)[nH]1.Cl", "note": "[Compound 14, 2-(3-[4′-Methylphenyl]-2-methoxyphenyl)-9-hydroxy-naphth[1,2-d]imidazole-7-sulfonic acid hydrochloride]", "values": [
      {"measurement": "activation, % of control in the luciferase assay", "result": "about 25%"}
    ]}
  ]
}
